# Patent US8916526B2, “Flavanone derivative” (National University Corporation Okayama University, priority 2009, dated 2014)
# Legend:
# MRSA N315 = test: In vitro infectivity assay (MIC), broth dilution, Exp. Ex. 1-1; assay type: cell-based, Staphylococcus aureus; settings: MRSA N315, Mueller-Hinton broth, 35° C., 24 hours; for MIC: Staphylococcus aureus, read-out: MIC MRSA N315
# Procedure: (§1) The antibacterial activities were measured based on broth dilution techniques of international standards (Clinical Laboratory Standards Institute: CLSI). The activities were shown by minimum inhibitory concentrations (MICs) determined by inoculating the above-mentioned strains at a concentration of about 10^5 […] into Mueller-Hinton broth (manufactured by Difco) containing 0.85% NaCl in 96-well microplates and incubating the plates at 35° C. for 24 hours. Measurement was carried out three times.
# (§2) The antibacterial activities of the compounds of the present invention against various strains such as methicillin-resistant Staphylococcus aureus (MRSA), vancomycin intermediate-resistant Staphylococcus aureus (VISA), methicillin-sensitive Staphylococcus aureus (MSSA), and vancomycin-resistant enterococci (VRE) were examined. Of the bacteria used in MIC measurement in this test example, clinical bacteria of MRSA (OM481 strain and OM584 strain) were supplied from Okayama University Hospital (Japan). An MRSA strain N315, a vancomycin intermediate-resistant Staphylococcus aureus (VISA) strain Mu50, and a methicillin-sensitive Staphylococcus aureus (MSSA) strain FDA 209P were used as controls. Vancomycin-resistant enterococcus (VRE) strains NCTC 12201 and FN-1 were supplied from the National Institute of Infectious Disease (Japan).
# MRSA OM481 = test: as above; assay type: cell-based, Staphylococcus aureus; settings: MRSA OM481, Mueller-Hinton broth, 35° C., 24 hours; for MIC: Staphylococcus aureus, read-out: MIC MRSA OM481
# Procedure: as §1, §2
# MRSA OM58 = test: as above; assay type: cell-based, Staphylococcus aureus; settings: MRSA OM58, Mueller-Hinton broth, 35° C., 24 hours; for MIC: Staphylococcus aureus, read-out: MIC MRSA OM58
# Procedure: as §1, §2
# MSSA FDA 209P = test: as above; assay type: cell-based, Staphylococcus aureus; settings: MSSA FDA 209P, Mueller-Hinton broth, 35° C., 24 hours; for MIC: Staphylococcus aureus, read-out: MIC MSS 209P
# Procedure: as §1, §2
# VISA Mu50 = test: as above; assay type: cell-based, Staphylococcus aureus; settings: VISA Mu50, Mueller-Hinton broth, 35° C., 24 hours; for MIC: Staphylococcus aureus, read-out: MIC VISA Mu50
# Procedure: as §1, §2
# VRE FN-1 = test: as above; assay type: cell-based, enterococci; settings: VRE FN-1, Mueller-Hinton broth, 35° C., 24 hours; for MIC: Enterococcus, read-out: MIC VRE FN-1
# Procedure: as §1, §2
# VRE NCTC12201 = test: as above; assay type: cell-based, enterococci; settings: VRE NCTC12201, Mueller-Hinton broth, 35° C., 24 hours; for MIC: Enterococcus, read-out: MIC VRE NCTC12201
# Procedure: as §1, §2
# [1] = test system: various strains such as MRSA, VISA, MSSA and VRE; test: In vitro infectivity assay (MIC), Exp. Ex. 1-1, strains taken together; assay type: cell-based, Staphylococcus aureus, enterococci; settings: summary of Table 1
# Procedure: as §1, §2
# [2] = target: T1, DNA gyrase of Escherichia coli (Escherichia coli, UniProt P0AES4+P0AES6); test: DNA gyrase inhibition (supercoiling assay kit), Exp. Ex. 1-2; assay type: biochemical; settings: E. coli DNA gyrase supercoiling, relaxed pBR322, 37° C., 30 minutes; for IC50: read-out: Gyrase inhibitory activity IC50 (converted)
# T1 construct: purchased John Innes Enterprises #K0001
# Procedure: As a kit for measurement of DNA gyrase of Escherichia coli, a product purchased from John Innes Enterprises (Gyrase Supercoiling assay kit #K0001) was used. Relaxed DNA was modified with gyrase into supercoiled DNA, and reaction products were separated by electrophoresis depending on the sizes of the molecular weights to examine anti-gyrase effects (IC50). One unit (1 U) of DNA gyrase and […] of relaxed pBR322 DNA were added to […] of the reaction solution, and the mixture was allowed to react at 37° C. for 30 minutes in the presence of 35 mM Tris-HCl (pH 7.5), 24 mM KCl, 4 mM MgCl2, 2 mM DTT, 1.8 mM spermidine, 1 mM ATP, 6.5% (w/v) glycerol, and 0.1 mg/ml BSA. The reactions were stopped using […] of a reaction stop solution (40% sucrose, 100 mM Tris-HCl (pH 7.5), 1 mM EDTA, 0.5 mg/ml bromophenol blue).
# T1 sequence (P0AES4 whole entry, one chain of several): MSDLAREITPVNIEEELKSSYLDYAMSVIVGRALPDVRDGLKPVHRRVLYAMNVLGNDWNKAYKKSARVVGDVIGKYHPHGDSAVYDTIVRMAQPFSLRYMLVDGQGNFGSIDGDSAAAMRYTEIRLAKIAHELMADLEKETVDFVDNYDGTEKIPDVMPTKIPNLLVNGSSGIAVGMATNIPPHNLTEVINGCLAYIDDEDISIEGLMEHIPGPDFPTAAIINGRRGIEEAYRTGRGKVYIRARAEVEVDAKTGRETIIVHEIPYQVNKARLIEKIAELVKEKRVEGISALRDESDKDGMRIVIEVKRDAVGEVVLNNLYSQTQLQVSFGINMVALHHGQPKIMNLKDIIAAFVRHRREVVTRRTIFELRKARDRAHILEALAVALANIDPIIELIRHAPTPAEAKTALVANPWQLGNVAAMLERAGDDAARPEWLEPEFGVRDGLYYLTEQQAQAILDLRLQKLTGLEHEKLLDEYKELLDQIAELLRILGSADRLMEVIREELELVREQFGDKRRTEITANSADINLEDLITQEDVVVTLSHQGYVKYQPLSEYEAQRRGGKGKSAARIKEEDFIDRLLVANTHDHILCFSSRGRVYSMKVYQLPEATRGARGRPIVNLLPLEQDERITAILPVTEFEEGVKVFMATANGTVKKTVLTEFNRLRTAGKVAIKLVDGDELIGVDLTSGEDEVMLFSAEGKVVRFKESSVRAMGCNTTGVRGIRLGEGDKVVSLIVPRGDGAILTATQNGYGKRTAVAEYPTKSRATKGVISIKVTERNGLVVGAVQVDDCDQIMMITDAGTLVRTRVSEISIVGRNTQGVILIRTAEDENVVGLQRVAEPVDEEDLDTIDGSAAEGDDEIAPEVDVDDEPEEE
compound,measurement,setting,value
"2-(3′,4′-Dihydroxy)-5,7-dihydroxy-3-β-D-(2″,3″-di-p-flurobenzyloxy)glucosyl-4H-chromen-4-one [Compound 15h]",MIC MRSA N315,MRSA N315,2 µg/mL
same,MIC MRSA OM481,MRSA OM481,8 µg/mL
same,MIC MRSA OM58,MRSA OM58,8 µg/mL
same,MIC MSS 209P,MSSA FDA 209P,2 µg/mL
same,MIC VISA Mu50,VISA Mu50,2 µg/mL
same,MIC VRE FN-1,VRE FN-1,8 µg/mL
same,MIC VRE NCTC 12201,VRE NCTC12201,8 µg/mL
same,Antibacterial activities against the vancomycin resistant bacteria such as VRE and VISA (in words),[1],strong antibacterial activities
"Cc1ccc(CCC(=O)O[C@H]2[C@H](Oc3c(-c4ccc(O)c(O)c4)oc4cc(O)cc(O)c4c3=O)O[C@H](CO)[C@@H](O)[C@@H]2OC(=O)CCc2ccc(C)cc2)cc1 [Compound 15c, 2-(3′,4′-Dihydroxy)-5,7-dihydroxy-3-β-D-(2″,3″-di-p-methylphenylethylcarboxy)glucosyl-4H-chromen-4-one]",MIC MRSA N315,MRSA N315,1 µg/mL
same,MIC MRSA OM481,MRSA OM481,2 µg/mL
same,MIC MRSA OM58,MRSA OM58,2 µg/mL
same,MIC MSS 209P,MSSA FDA 209P,1 µg/mL
same,MIC VISA Mu50,VISA Mu50,1 µg/mL
same,MIC VRE FN-1,VRE FN-1,2 µg/mL
same,MIC VRE NCTC 12201,VRE NCTC12201,4 µg/mL
same,Gyrase inhibitory activity IC50,[2],3.50 µg/mL
same,Antibacterial activities against the vancomycin resistant bacteria such as VRE and VISA (in words),[1],strong antibacterial activities
"CCOc1ccc(C(=O)O[C@H]2[C@H](Oc3c(-c4ccc(O)c(O)c4)oc4cc(O)cc(O)c4c3=O)O[C@H](CO)[C@@H](O)[C@@H]2OC(=O)c2ccc(OCC)cc2)cc1 [Compound 15e, 2-(3′,4′-Dihydroxy)-5,7-dihydroxy-3-β-D-(2″,3″-di-p-ethoxybenzoyloxy)glucosyl-4H-chromen-4-one]",MIC,MRSA N315,8 µg/mL
same,MIC,MRSA OM481,32 µg/mL
same,MIC,MRSA OM58,32 µg/mL
same,MIC,MSSA FDA 209P,8 µg/mL
same,MIC,VISA Mu50,16 µg/mL
same,MIC,VRE FN-1,16 µg/mL
same,MIC,VRE NCTC12201,16 µg/mL
same,IC50,[2],10.8 µM
same,melting point,,122 to 123 °C
"CCCc1ccc(C(=O)O[C@H]2[C@H](Oc3c(-c4ccc(O)c(O)c4)oc4cc(O)cc(O)c4c3=O)O[C@H](CO)[C@@H](O)[C@@H]2OC(=O)c2ccc(CCC)cc2)cc1 [Compound 15f, 2-(3′,4′-Dihydroxy)-5,7-dihydroxy-3-β-D-(2″,3″-di-p-propylbenzoyloxy)glucosyl-4H-chromen-4-one]",MIC,MRSA N315,8 µg/mL
same,MIC,MRSA OM481,32 µg/mL
same,MIC,MRSA OM58,32 µg/mL
same,MIC,MSSA FDA 209P,8 µg/mL
same,MIC,VISA Mu50,16 µg/mL
same,MIC,VRE FN-1,8 µg/mL
same,MIC,VRE NCTC12201,8 µg/mL
same,IC50,[2],13.2 µM
same,melting point,,152 to 153 °C
"CC(=O)OC[C@H]1O[C@@H](Oc2c(-c3ccc(O)c(O)c3)oc3cc(O)cc(O)c3c2=O)[C@H](OC(C)=O)[C@@H](OC(C)=O)[C@@H]1OC(C)=O [Compound 16, 2-(3′4′-Dihydroxy)-5,7-dihydroxy-3-β-D-tetraacetylglucosyl-4H-chromen-4-one]",MIC,MRSA N315,128 µg/mL
same,MIC,MRSA OM481,128 µg/mL
same,MIC,MRSA OM58,128 µg/mL
same,MIC,MSSA FDA 209P,128 µg/mL
same,MIC,VISA Mu50,> 128 µg/mL
same,MIC,VRE FN-1,> 128 µg/mL
same,MIC,VRE NCTC12201,> 128 µg/mL
same,IC50,[2],> 19 µM
same,melting point,,109 to 110 °C
